Results as given in patent publication US7868026B2, “Therapeutic compounds” (Pfizer Inc., priority 2005, dated 2011).
Like-named read-outs stand apart in the source and are kept apart here.

Experiments:
Format in all cases: biochemical
CYP3A4 [1] = molecular target: T1, CYP3A4 (Homo sapiens, UniProt P08684); test: Determination of compound Kiapp against recombinant CYP3A4 enzyme (BFC fluorescent substrate)
Procedure, shortened: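 Recombinant CYP3A4 (5.5 or 8 nM, with or without b5 depending on source) pre-incubated with inhibitor ≥30 min at room temperature in 100 mM sodium phosphate pH 7.0, 5 mM TCEP, 2% DMF. Reaction started with 200 uM NADPH and 5 uM BFC; initial fluorescence rates over 5 min fitted to Morrison tight-binding (non-partial) or Szedlacsek (partial) equations for Kiapp.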

CYP3A4 [2] = molecular target: T1, CYP3A4; test: Determination of IC50 against CYP3A4 by measurement of inhibition of testosterone metabolism (human liver microsomes, 6-β-OH-testosterone by LC-MS/MS); parameters: 0.1 mg/mL human liver microsomes; details: read-out: IC50 (Testo.)
Procedure, shortened: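 Human liver microsomes (0.1 mg/mL) incubated with 25 μM testosterone and 1 mM NADPH in 100 mM potassium phosphate, pH 7.4, for eight minutes. 6-β-OH-testosterone measured by LC-MS/MS in MRM mode against an internal standard and quantified from a metabolite standard curve.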

CYP3A4 [3] = molecular target: T1, CYP3A4; test: Determination of IC50 against CYP3A4 by measurement of inhibition of midazolam metabolism (human liver microsomes, 1-hydroxymidazolam by LC-MS/MS); parameters: 0.1 mg/mL human liver microsomes; details: 2 μM midazolam, 0.1 mg/mL human liver microsomes
Procedure, shortened: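 Human liver microsomes (0.1 mg/mL) incubated 8 min with 2 μM midazolam and 1 mM NADPH in 100 mM potassium phosphate, pH 7.4. 1-Hydroxymidazolam quantified by LC-MS/MS (MRM) as peak area ratio to internal standard against a metabolite standard curve.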

[4] = Baculo. enzyme preparation, read-out: Kiapp (BFC, Baculo.)
[5] = Super. enzyme preparation, read-out: Kiapp (BFC, Super.)

T1 sequence (P08684 whole entry): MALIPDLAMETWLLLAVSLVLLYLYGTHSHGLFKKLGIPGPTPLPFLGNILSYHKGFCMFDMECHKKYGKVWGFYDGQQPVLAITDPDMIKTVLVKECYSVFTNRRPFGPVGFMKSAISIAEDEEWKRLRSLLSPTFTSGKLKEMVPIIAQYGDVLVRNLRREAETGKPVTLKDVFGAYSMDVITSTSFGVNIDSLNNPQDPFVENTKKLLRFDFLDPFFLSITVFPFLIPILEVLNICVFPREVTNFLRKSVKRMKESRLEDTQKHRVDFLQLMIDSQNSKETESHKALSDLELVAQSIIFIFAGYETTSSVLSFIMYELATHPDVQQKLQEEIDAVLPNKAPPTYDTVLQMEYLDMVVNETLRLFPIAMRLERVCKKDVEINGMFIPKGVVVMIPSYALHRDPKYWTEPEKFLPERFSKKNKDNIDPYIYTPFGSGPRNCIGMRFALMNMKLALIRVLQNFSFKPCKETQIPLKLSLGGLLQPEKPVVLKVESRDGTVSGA

Row | SMILES | Ki (CYP3A4 [1]; [4]) | Ki (CYP3A4 [1]; [5]) | IC50 (CYP3A4 [2]) | IC50 (CYP3A4 [3])
1 | COCCNC(=O)c1ccccc1S(=O)(=O)Nc1cnccc1C [Example 174, N-(2-methoxyethyl)-2-{[(4-methylpyridin-3-yl)amino]sulfonyl}benzamide] | > 1000 nM | 392 nM | 356 nM | 451 nM
2 | COc1cncc(NS(=O)(=O)c2ccccc2C(=O)NCc2cccc(Cl)c2F)c1 [Example 175, N-(3-chloro-2-fluorobenzyl)-2-{[(5-methoxypyridin-3-yl)amino]sulfonyl}benzamide] | 24 nM | 1.3 nM | 9 nM | 9 nM
3 | Cc1ccccc1CCNC(=O)c1ccccc1S(=O)(=O)Nc1cnccc1C [Example 177, N-[2-(2-methylphenyl)ethyl]-2-{[(4-methylpyridin-3-yl)amino]sulfonyl}benzamide] | 70.6 nM | 3.5 nM | 12 nM | 11 nM
4 | Cc1ccncc1NS(=O)(=O)c1ccccc1C(=O)NC(C)(C)C [Example 178, N-(tert-butyl)-2-{[(4-methylpyridin-3-yl)amino]sulfonyl}benzamide] | > 1000 nM | 106 nM | 97 nM | 70 nM
5 | Cc1ccncc1NS(=O)(=O)c1ccccc1C(=O)NCCC(C)C [Example 179, N-(3-methylbutyl)-2-{[(4-methylpyridin-3-yl)amino]sulfonyl}benzamide] | 314 nM | 63.7 nM | 58 nM | 45 nM
6 | COc1cncc(NS(=O)(=O)c2ccccc2C(=O)NC(C)c2ccc(Cl)cc2)c1 (centres unmarked) [Example 182, N-[1-(4-chlorophenyl)ethyl]-2-{[(5-methoxypyridin-3-yl)amino]sulfonyl}benzamide] | 37.4 nM | 3.5 nM | 13 nM | 6 nM
7 | COc1cncc(NS(=O)(=O)c2ccccc2C(=O)NCc2ccccc2OC)c1 [Example 186, N-(2-methoxybenzyl)-2-{[(5-methoxypyridin-3-yl)amino]sulfonyl}benzamide] | 171 nM | 9.7 nM | 7 nM | 6 nM
8 | COc1cncc(NS(=O)(=O)c2ccccc2C(=O)NCC2(O)C3CC4CC(C3)CC2C4)c1 (centres unmarked) [Example 188, N-[(2-hydroxy-2-adamantyl)methyl]-2-{[(5-methoxypyridin-3-yl)amino]sulfonyl}benzamide] | 36.4 nM | 3.4 nM | 12 nM | 8 nM
9 | COc1cncc(NS(=O)(=O)c2ccccc2C(=O)N[C@H](CO)CC2CCCCC2)c1 [Example 190, N-[(1S)-2-cyclohexyl-1-(hydroxymethyl)ethyl]-2-{[(5-methoxypyridin-3-yl)amino]sulfonyl}benzamide] | 16.9 nM | 3.4 nM | 16 nM | 7 nM
10 | COC[C@@H]1[C@@H]2C[C@@H]3[C@H]1CN(C(=O)c1ccccc1S(=O)(=O)Nc1cncc(OC)c1)[C@@H]3C2 [Example 194, 2-{[(3R,3aR,5R,6aR,7R)-7-(methoxymethyl)hexahydro-3,5-methanocyclopenta[b]pyrrol-1(2H)-yl]carbonyl}-N-(5-methoxypyridin-3-yl)benzenesulfonamide] | 376 nM | 68.5 nM | 99 nM | 73 nM
11 | COc1cncc(NS(=O)(=O)c2ccccc2C(=O)N2CCOC(c3c(F)cccc3F)C2)c1 (centres unmarked) [Example 196, 2-{[2-(2,6-difluorophenyl)morpholin-4-yl]carbonyl}-N-(5-methoxypyridin-3-yl)benzenesulfonamide] | 379 nM | 74.5 nM | 58 nM | 51 nM

Other lines, results leading:

Row | Ki (CYP3A4 [1]; [4]) | Ki (CYP3A4 [1]; [5]) | IC50 (CYP3A4 [2]) | IC50 (CYP3A4 [3]) | SMILES
12 | > 1000 nM | 625 nM | > 750 nM | 406 nM | COc1cncc(NS(=O)(=O)c2ccccc2C(=O)NCCO)c1 [Example 176, N-(2-hydroxyethyl)-2-{[(5-methoxypyridin-3-yl)amino]sulfonyl}benzamide]
13 | 92.8 nM | 7 nM | 11 nM | 4 nM | COc1cncc(NS(=O)(=O)c2ccccc2C(=O)NCc2c(F)ccc(C)c2F)c1 [Example 180, N-(2,6-difluoro-3-methylbenzyl)-2-{[(5-methoxypyridin-3-yl)amino]sulfonyl}benzamide]
14 | 71.8 nM | 10.8 nM | 13 nM | 7 nM | COc1cncc(NS(=O)(=O)c2ccccc2C(=O)NCc2cccc(F)c2F)c1 [Example 181, N-(2,3-difluorobenzyl)-2-{[(5-methoxypyridin-3-yl)amino]sulfonyl}benzamide]
15 | 22.6 nM | 2 nM | 11 nM | 5 nM | COc1cncc(NS(=O)(=O)c2ccccc2C(=O)NCc2ccc(F)cc2Cl)c1 [Example 183, N-(2-chloro-4-fluorobenzyl)-2-{[(5-methoxypyridin-3-yl)amino]sulfonyl}benzamide]
16 | 54.5 nM | 5.9 nM | 11 nM | 13 nM | COc1cncc(NS(=O)(=O)c2ccccc2C(=O)NCc2cc(F)cc(F)c2)c1 [Example 184, N-(3,5-difluorobenzyl)-2-{[(5-methoxypyridin-3-yl)amino]sulfonyl}benzamide]
17 | 17.1 nM | 2.8 nM | 10 nM | 11 nM | COc1cncc(NS(=O)(=O)c2ccccc2C(=O)NCc2cccc(Cl)c2Cl)c1 [Example 185, N-(2,3-dichlorobenzyl)-2-{[(5-methoxypyridin-3-yl)amino]sulfonyl}benzamide]
18 | 257 nM | 35.9 nM | 28 nM | 22 nM | COc1cncc(NS(=O)(=O)c2ccccc2C(=O)NC2CCCCC2)c1 [Example 187, N-cyclohexyl-2-{[(5-methoxypyridin-3-yl)amino]sulfonyl}benzamide]
19 | 175 nM | 27.4 nM | 48 nM | 24 nM | CCCCC(CO)NC(=O)c1ccccc1S(=O)(=O)Nc1cncc(OC)c1 (centres unmarked) [Example 189, N-[1-(hydroxymethyl)pentyl]-2-{[(5-methoxypyridin-3-yl)amino]sulfonyl}benzamide]
20 | 59.7 nM | 5 nM | 15 nM | 10 nM | COc1cncc(NS(=O)(=O)c2ccccc2C(=O)NCCc2ccc(F)cc2F)c1 [Example 191, N-[2-(2,4-difluorophenyl)ethyl]-2-{[(5-methoxypyridin-3-yl)amino]sulfonyl}benzamide]
21 | 23.7 nM | 2.7 nM | 7 nM | 7 nM | COc1cncc(NS(=O)(=O)c2ccccc2C(=O)NCc2cccc(Cl)c2)c1 [Example 192, N-(3-chlorobenzyl)-2-{[(5-methoxypyridin-3-yl)amino]sulfonyl}benzamide]
22 | 41.2 nM | 21.7 nM | 27 nM | 13 nM | CCC(CC)NC(=O)c1ccccc1S(=O)(=O)Nc1cncc(OC)c1 [Example 193, N-(1-ethylpropyl)-2-{[(5-methoxypyridin-3-yl)amino]sulfonyl}benzamide]
23 | 70.8 nM | 35.6 nM | 32 nM | 15 nM | CCCN(CC)C(=O)c1ccccc1S(=O)(=O)Nc1cncc(OC)c1 [Example 195, N-ethyl-2-{[(5-methoxypyridin-3-yl)amino]sulfonyl}-N-propylbenzamide]
